Measurements taken from patent US5658890A, “C-nucleoside isostere of nicotinamide adenine dinucleotide, analogs thereof and use as anti-cancer agent” (Sloan-Kettering Institute for Cancer Research, priority 1995, dated 1997).
Read-outs that look alike come from different tables or passages of the source.

Columns and labels:
[1] = tested on: lactate dehydrogenase (LDH); assay: Inhibition of lactate dehydrogenase by the NAD analog; assay type: biochemical
[2] = tested on: inosine monophosphate dehydrogenase (IMPDH); assay: Inhibition of inosine monophosphate dehydrogenase by the NAD analog; assay type: biochemical
[3] = target: bovine glutamate dehydrogenase (GDH) (Bos taurus, UniProt P00366); assay: Inhibition of bovine glutamate dehydrogenase (GDH); assay type: biochemical
Chain of bovine glutamate dehydrogenase (GDH) (P00366 58-558): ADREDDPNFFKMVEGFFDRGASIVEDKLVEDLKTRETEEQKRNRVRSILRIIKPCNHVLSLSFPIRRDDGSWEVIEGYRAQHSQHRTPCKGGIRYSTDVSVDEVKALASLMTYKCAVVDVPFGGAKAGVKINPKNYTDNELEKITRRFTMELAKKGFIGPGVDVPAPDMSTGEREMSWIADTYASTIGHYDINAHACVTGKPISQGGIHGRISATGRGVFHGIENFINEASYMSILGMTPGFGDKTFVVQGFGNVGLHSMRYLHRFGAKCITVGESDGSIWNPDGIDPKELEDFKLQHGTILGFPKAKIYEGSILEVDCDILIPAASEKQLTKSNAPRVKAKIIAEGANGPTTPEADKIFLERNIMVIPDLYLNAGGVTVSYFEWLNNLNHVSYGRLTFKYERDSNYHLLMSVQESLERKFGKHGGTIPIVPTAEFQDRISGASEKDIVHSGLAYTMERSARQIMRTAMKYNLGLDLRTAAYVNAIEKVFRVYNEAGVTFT
Experimental: 2. Inhibition of horse liver alcohol dehydrogenase (ADH) and bovine glutamate dehydrogenase (GDH)
Rate measurements for each of the dehydrogenases used in this study are based on the spectral properties of NADH. In assays with NAD as a substrate, rates were determined by measuring the increase in absorbance at 340 nm resulting from the conversion of NAD to NADH. Rates, using absorbance measurements, were calculated using a millimolar extinction coefficient of 6.22/cm for NADH.
Alcohol dehydrogenase assays were run at pH 8.0, using 0.1M sodium phosphate buffer. Glutamate dehydrogenase assays were at pH 7.0 in 0.1M sodium phosphate buffer, containing 10 μm EDTA. All kinetic assays were run at least in duplicate.
Initial values of inhibition constants were estimated from Lineweaver-Burk plots, using linear regression to obtain values for the slope and intercept of each line. Inhibition was judged to be competitive if the values obtained for the intercepts of the appropriate polots differed by less than three standard deviations as determined by linear regression. Values for the inhibition constant, Kis was obtained using the relationship:
where S(+) and S(-) are the slopes of the plots in the presence and absence of inhibitor, respectively, and [I] is the concentration of total added inhibitor. […]

[4] = tested on: murine leukemia L1210 cells; assay: Cytotoxicity to murine leukemia L1210 cells; assay type: cell-based; settings: Mus musculus, incubated 24 and 48 hr, cells counted in a Coulter counter, read-out: inhibits the proliferation of L1210 cells by 50% (IC50)
Experimental: 1. Cytoxicity of 5-(β-D-ribofuranosyl)nicotinamide-(5'-5")-adenosine pyrophosphate (Compound 2, CNAD) to murine leukemia L1210 cells.
Murine leukemia L1210 cells were grown in RPMI 1640 medium. Logarithmically growing cells were incubated with various concentrations of CNAD for 24 and 48 hr periods and the cytoxicity determined by counting the cells in a Coulter counter.

[5] = target: T1, horse liver alcohol dehydrogenase (ADH) (Equus caballus, UniProt P00327); assay: Inhibition of horse liver alcohol dehydrogenase (ADH), NADH absorbance at 340 nm; assay type: biochemical; settings: for Ki: pH 8.0
T1 construct: horse liver alcohol dehydrogenase (ADH); from tissue; host or cells: horse liver
T1 sequence (P00327 whole entry): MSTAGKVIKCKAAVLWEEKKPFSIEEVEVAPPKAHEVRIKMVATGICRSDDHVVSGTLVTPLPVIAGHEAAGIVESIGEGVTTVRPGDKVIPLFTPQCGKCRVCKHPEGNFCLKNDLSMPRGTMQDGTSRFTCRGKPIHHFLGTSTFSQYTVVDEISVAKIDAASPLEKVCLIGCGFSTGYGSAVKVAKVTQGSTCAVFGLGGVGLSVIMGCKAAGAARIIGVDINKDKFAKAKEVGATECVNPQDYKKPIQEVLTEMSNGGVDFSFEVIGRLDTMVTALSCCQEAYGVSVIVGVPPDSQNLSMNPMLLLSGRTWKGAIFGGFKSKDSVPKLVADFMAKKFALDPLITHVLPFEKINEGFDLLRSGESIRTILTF
Experimental: 2. Inhibition of horse liver alcohol dehydrogenase (ADH) and bovine glutamate dehydrogenase (GDH) Rate measurements for each of the dehydrogenases used in this study are based on the spectral properties of NADH. […] Rates, using absorbance measurements, were calculated using a millimolar extinction coefficient of 6.22/cm for NADH. Alcohol dehydrogenase assays were run at pH 8.0, using 0.1M sodium phosphate buffer. […] All kinetic assays were run at least in duplicate. Initial values of inhibition constants were estimated from Lineweaver-Burk plots, using linear regression to obtain values for the slope and intercept of each line. Inhibition was judged to be competitive if the values obtained for the intercepts of the appropriate polots differed by less than three standard deviations as determined by linear regression. Values for the inhibition constant, Kis was obtained using the relationship: […] where S(+) and S(-) are the slopes of the plots in the presence and absence of inhibitor, respectively, and [I] is the concentration of total added inhibitor. Where a noncompetitive pattern of inhibition was observed, a similar analysis was used to obtain Kii. Km for conenzyme was obtained from the slope and intercept obtained in plots in the absence of inhibitor, using the relationship: Km =[…]. Values of effective inhibition constants and patterns of inhibition for CNAD binding to ADH were obtained by direct least-squares fits to the nonreciprocal forms of the Michaelis-Menten rate equations. Kinetic data were fit to the following relationships, assuming both competitive and noncompetitive inhibition respectively: vo =[…]]} vo =[…] vo is the initial reaction rate, Vm is the maximal rate, and Km and [A] the Michaelis constant and concentration of the variable substrate, respectively. The pattern of inhibition considered to best account for the observed data was that giving both the smallest residuals between observed and calculated values, and the smallest standard errors in the computed kinetics constants. […] Derivation of this rate equation assumes the presence of a tight binding inhibitor, i.e., that [I]~[E]. In this experiment both inhibitor and enzyme concentration were varied. Initial rates vo were measured at total concentrations of CNAD ([I]) of 0, 2.4, 9.6, and 19.2 nM over four concentrations of ADH ([E]). Concentrations of ethanol and NAD were fixed at 1.2 […] and 87 μM at pH 8.0. The apparent inhibition constant with respect to NAD, Ki', was then obtained by non-linear least-squares fit to the rate equation under the array of experimental conditions employed. The true rate constant Ki was obtained from the apparent rate constant Ki was obtained from the apparent rate constant Ki, via the relationship: […]

[6] = tested on: malate dehydrogenase (MDH); assay: Inhibition of malate dehydrogenase by the NAD analog; assay type: biochemical
Human IMPDH type II = target: T2, Human IMPDH type II (Homo sapiens, UniProt P12268); assay: Inhibition of human IMPDH type II by TAD analogues; assay type: biochemical
T2 construct: Dr. George D. Markham, Institute for Cancer Research, Fox Chase Cancer Center, Fox Chase, Pa
Experimental: Purified human recombinant IMPDH-II was obtained from Dr. George D. Markham of the Institute for Cancer Research, Fox Chase Cancer Center, Fox Chase, Pa. Horse liver ADH was obtained in crystalline form from Boehringer Mannheim Biochemicals, Indianapolis. β-Nicotinamide adenine dinucleotide (NAD) in crystalline free acid form was also obtained from Boehringer. Inosine 5'-monophosphate (IMP) was purchased from Sigma Chemical Co., St. Louis as the disodium salt. All solutions were prepared using nano-pure water.
Kinetic constants of the inhibitors with respect to NAD were obtained by monitoring spectrophotometrically the rate of production of NADH during the reaction.
Human IMPDH type II was stored at -70° C. in buffer containing 20 mM KCl, 1 mM EDTA, 1 mM DTT and 20 mM Tris-HCl adjusted to pH 8 at 23° C. In preparation for the assays, a frozen aliquot was thawed rapidly and filtered through a 0.45 μm acetate filter. Protein concentration was determined from a Coomassie Assay. In some cases the enzyme was diluted 4:1 in similar 20 mM Tris buffer. NAD and IMP solutions were prepared based on molecular weight.
Combination of the reactants was performed as follows: An aliquot of substrate solution was pipetted down one side of a cuvet, one of co-factor down another side, and inhibitor down a third. The volume was brought to 990 μL with reaction buffer and the cuvet was agitated. This mixture was allowed to incubate in the spectrophotometer sample holder for five minutes before the reaction was started, the temperature held at 37° C. by a circulating water bath. The reaction was initiated by the introduction of 10 μL of enzyme solution on a mixing plunger, and NADH production was monitored for between two and 10 minutes, depending on the activity of the protein solution.
The uninhibited rate of reaction as a function of cofactor concentration was first established. Velocities at four NAD concentrations and saturating substrate concentrations were measured and Km for NAD obtained. Inhibitor was then introduced to the reaction mixture with an NAD concentration in the vicinity of Km.
Lineweaver-Burk plots were used to assess the quality of the data and to initially characterize the mode of inhibition with respect to NAD. […] Consequently, values of kii (intercept) and kis (slope) reported in Table I were obtained from direct least squares fits to the expression:
where vo is the measured initial rate, Vm is the maximum rate, Km is the Michaelis constant of NAD, and [A] is concentration of NAD.

[7] = target: T3, horse liver alcohol dehydrogenase (LADH) (Equus caballus, UniProt P00327); assay: Preliminary assays of horse liver alcohol dehydrogenase (LADH) inhibition; assay type: biochemical; settings: ethanol 1.2 mM, pH 8, read-out: level of inhibition of horse liver alcohol dehydrogenase (LADH)
T3 construct: Horse liver ADH was obtained in crystalline form; purchased Boehringer Mannheim Biochemicals, Indianapolis; host or cells: horse liver
T3 sequence (P00327 whole entry): as above
Experimental: Purified human recombinant IMPDH-II was obtained from Dr. George D. Markham of the Institute for Cancer Research, Fox Chase Cancer Center, Fox Chase, Pa. Horse liver ADH was obtained in crystalline form from Boehringer Mannheim Biochemicals, Indianapolis. β-Nicotinamide adenine dinucleotide (NAD) in crystalline free acid form was also obtained from Boehringer. Inosine 5'-monophosphate (IMP) was purchased from Sigma Chemical Co., St. Louis as the disodium salt. All solutions were prepared using nano-pure water. Kinetic constants of the inhibitors with respect to NAD were obtained by monitoring spectrophotometrically the rate of production of NADH during the reaction. The course of the reaction was followed by measuring the changing absorbance of the reaction mixture at 340 nm, the absorbance peak for NADH, using a Beckman DU-65 spectrophotometer, and an extinction of 6.22 A mM^-1 cm^-1 for the reduced cofactor.(51) Preliminary assays of alcohol dehydrogenase were performed in a similar manner to that described above. LADH in crystalline suspension was spun down to a pellet and dissolved in 100 mM Tris-HCl buffer containing 100 mM KCl adjusted to pH 8 at 23° C. Stock solutions of NAD and ethanol were prepared in buffer based on molecular weight and volume, respectively. Ethanol was introduced as an aliquot of stock solution and its concentration was kept constant at 1.2 mM while NAD concentration was varied by serial dilution of the stock solution.

cell membranes = settings: compared with tiazofurin; personal communication (ref. 35); cited from earlier work
[8] = IMPDH type II, read-out: Kis (binding)
[9] = NAD variable substrate, IMP constant at 100 μM, non-competitive, 37° C., read-out: Kii
[10] = NAD variable substrate, IMP constant at 100 μM, non-competitive, 37° C., read-out: Kis

SMILES	pattern of inhibition of ADH with respect to NAD [5]	Ki (Human IMPDH type II; [8]) [µM]	Ki (Human IMPDH type II; [9]) [µM]	Ki (Human IMPDH type II; [10]) [µM]	Ki [7] [µM]	also measured
NC(=O)c1cncc([C@@H]2O[C@H](COP(=O)(O)OP(=O)(O)OC[C@H]3O[C@@H](n4cnc5c(N)ncnc54)[C@H](O)[C@@H]3O)[C@@H](O)[C@H]2O)c1 [CNAD, 5-(β-D-ribofuranosyl)nicotinamide-(5'-5")-adenosine pyrophosphate]	non-competitive	–	–	–	–	pattern of inhibition of LDH with respect to NAD [1]: competitive; pattern of inhibition of IMPDH with respect to NAD [2]: competitive; pattern of inhibition of GDH with respect to NAD [3]: competitive; Ki ([3]; competitive, pH 7.0): 15 µM; IC50 [4]: 7 µM; inhibitory activity against alcohol dehydrogenase from horse liver (in words) [5]: highly potent and selective inhibitory activity; Ki ([5]; direct least-squares fit to Michaelis-Menten rate equations, read-out: apparent Ki (Ki') with respect to NAD): 0.006 µM; Ki ([5]; non-competitive, with respect to NAD, read-out: Ki, inhibition of ADH): 0.002 µM; pattern of inhibition of MDH with respect to NAD [6]: competitive
NC(=O)c1csc([C@@H]2O[C@H](COP(=O)(O)OP(=O)(O)OC[C@H]3O[C@@H](n4cnc5c(N)ncnc54)[C@H](F)[C@@H]3O)[C@@H](O)[C@H]2O)n1 [Compound 3, P^1-(Tiazofurin-5'-yl)-P^2-(2'-deoxy-2'-fluoroadenosin 5'-yl)pyrophosphate]	–	0.5	0.5 ± 0.1	6 ± 12	100	–
NC(=O)c1cccc([C@@H]2O[C@H](COP(=O)(O)OP(=O)(O)OC[C@H]3O[C@@H](n4cnc5c(N)ncnc54)[C@H](O)[C@@H]3O)[C@@H](O)[C@H]2O)n1 [C-PAD, 6-(β-D-ribofuranosyl)picolinamide-(5'-5")adenosine pyrophosphate]	competitive	–	–	–	–	Ki ([5]; competitive, read-out: Ki, inhibition of ADH with respect to NAD): 20 µM
NC(=O)c1csc([C@@H]2O[C@H](COP(=O)(O)OP(=O)(O)OC[C@H]3O[C@@H](n4cnc5c(N)ncnc54)[C@H](O)[C@@H]3F)[C@@H](O)[C@H]2O)n1 [Compound 4, P^1-(Tiazofurin-5'-yl)-P^2-(3'-deoxy-3'-fluoroadenosin-5'-yl)pyrophosphate]	–	0.7	0.7 ± 0.1	1.5 ± 0.6	100	–
NC(=O)c1csc([C@@H]2O[C@H](COP(=O)(O)C(F)(F)P(=O)(O)OC[C@H]3O[C@@H](n4cnc5c(N)ncnc54)[C@H](O)[C@@H]3O)[C@@H](O)[C@H]2O)n1 [β-CF2 -TAD, β-difluoromethylene TAD]	–	–	0.17 ± 0.03	0.3 ± 0.2	–	Ki (Human IMPDH type II; IMPDH type II, read-out: Ki): 0.17 µM; penetration of cell membranes (cell membranes): can penetrate cell membranes although not as efficiently as tiazofurin
NC(=O)c1csc([C@@H]2O[C@H](COP(=O)(O)OP(=O)(O)OC[C@H]3O[C@@H](n4cnc5c(N)ncnc54)[C@@H](F)[C@@H]3O)[C@@H](O)[C@H]2O)n1 [Compound 5]	–	2.9	2.9 ± 0.5	13	> 10000	–
